Here are results for four compounds from patent US20110178174A1, “SALTS OF TRAMADOL AND IBUPROFEN AND THEIR CRYSTAL FORM IN THE TREATMENT OF PAIN” (LABORATORIOS DEL DR. ESTEVE, S.A., priority 2008, published 2011).

A short description of series [1]: Thermogravimetric (TG) analysis, weight loss due to decomposition. As to conditions: heated at 10° C./min from 30 to 500° C., under nitrogen (80 mL/min). It counts as physicochemical. Here is the method: Thermogravimetric analyses were recorded in a Mettler Toledo SDTA851e. Samples of 3-4 mg were weighted into 40 μL aluminium crucibles with a pinhole lid, and heated at 10° C./min from 30 to 500° C., under nitrogen (80 mL/min).

The conditions of series [2]: cited from earlier work.

On to `CC(C)Cc1ccc([C@H](C)C(=O)O)cc1.COc1cccc([C@]2(O)CCCC[C@H]2CN(C)C)c1` [(−)-tramadol-(S)-ibuprofen salt, Phase 1], for which the “TG analysis: weight loss beginning due to decomposition (temperature)” value in series [1] came to 140 °C.
Same read-out and setting: the value for `CC(C)Cc1ccc([C@H](C)C(=O)O)cc1.COc1cccc([C@]2(O)CCCC[C@H]2CN(C)C)c1` [(−)-tramadol-(S)-ibuprofen salt, Phase 2, (−)-tramadol-(S)-ibuprofen Salt, Phase 2] was 130 °C.
For `CC(C)Cc1ccc(C(C)C(=O)O)cc1` (stereo not shown) [ibuprofen, 2-[4-(2-methylpropyl)phenyl]propanoic acid], the “amount of ibuprofen that dissolves in 1 ml of water” value in series [2] is reported as “Less than 1 mg”.
On to (+)-tramadol-(S)-ibuprofen salt, for which the “TG analysis: weight loss beginning due to decomposition (temperature)” value in series [1] was 130 °C.
